The supplement of paper PMC10307832

Assays:
Assay in all cases: relative viability (nuclei count vs DMSO), 5 days (fraction); higher = more cells survive
[1] = compound: C(C(=O)C(=O)O)Br [Bromopyruvate] + CC1(C)CCC(c2ccc(Cl)cc2)=C(CN2CCN(c3ccc(C(=O)NS(=O)(=O)c4ccc(N[C@H](CCN5CCOCC5)CSc5ccccc5)c(S(=O)(=O)C(F)(F)F)c4)cc3)CC2)C1 [Navitoclax] (partner 0.5 µM)
How it was run: (§1)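 The day after seeding in 1536-well plates, lung cancer cell lines were treated by pin tool with a single drug, or with a fixed anchor-drug dose together with five library-drug doses (not always all listed) in √10 steps. After 5 days, a combined fix-and-stain solution (final 0.05% Triton X-100, 1% formaldehyde, 1 ug/ml Hoechst) was added. Nuclei counted on 4× images gave relative viability as treated counts over vehicle counts, reported as the median of duplicate plates.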

[2] = compound: C(C(=O)C(=O)O)Br [Bromopyruvate] + C[C@]1(O)C[C@@H](c2nc(-c3ccc4ccc(-c5ccccc5)nc4c3)c3c(N)nccn32)C1 [Linsitinib] (partner 1 µM)
How it was run: as §1

[3] = compound: C(C(=O)C(=O)O)Br [Bromopyruvate] + CC(=O)c1c(C)c2cnc(Nc3ccc(N4CCNCC4)cn3)nc2n(C2CCCC2)c1=O [Palbociclib] (partner 0.5 µM)
How it was run: as §1

[4] = compound: C(C(=O)C(=O)O)Br [Bromopyruvate] + CC(=O)Nc1cccc(-n2c(=O)n(C3CC3)c(=O)c3c(Nc4ccc(I)cc4F)n(C)c(=O)c(C)c32)c1 [Trametinib] (partner 0.02 µM)
How it was run: as §1

Cell Line	relative viability ([1]; first compound 1 µM)	relative viability ([1]; first compound 3.162 µM)	relative viability ([1]; first compound 10 µM)	relative viability ([1]; first compound 31.62 µM)	relative viability ([1]; first compound 100 µM)	relative viability ([2]; first compound 1 µM)	relative viability ([2]; first compound 3.162 µM)	relative viability ([2]; first compound 10 µM)	relative viability ([2]; first compound 31.62 µM)	relative viability ([2]; first compound 100 µM)	relative viability ([3]; first compound 1 µM)	relative viability ([3]; first compound 3.162 µM)	relative viability ([3]; first compound 10 µM)	relative viability ([3]; first compound 31.62 µM)	relative viability ([3]; first compound 100 µM)	relative viability ([4]; first compound 1 µM)	relative viability ([4]; first compound 3.162 µM)	relative viability ([4]; first compound 10 µM)	relative viability ([4]; first compound 31.62 µM)	relative viability ([4]; first compound 100 µM)
NCI-H1755	1.06	1.02	0.977	1.03	1.03	1.01	1.03	0.984	0.984	0.985	0.477	0.43	0.45	0.431	0.456	0.827	0.831	0.722	0.768	0.796
NCI-H1792	0.716	0.719	0.787	0.486	0.542	0.538	0.533	0.718	0.522	0.456	0.673	0.698	0.684		0.656	0.392	0.448	0.382	0.364	0.435
NCI-H1793	0.673	0.376	0.377	0.516	0.511	0.706	0.8	1.16	0.844	1.06	0.291	0.354	0.325	0.365	0.341	0.469	0.496	0.503	0.485	0.49
NCI-H1915	0.827	0.765	0.792	0.824	0.801	1.12	1.15	1.09	1.09	1.1	0.524	0.532	0.538	0.514	0.56	0.308	0.293	0.296	0.342	0.349
NCI-H1944	1.08	1.15	1.02	1.01	1.05	1.27	1.31	1.19	1.12	1.22	0.32	0.333	0.335	0.319	0.311	0.428	0.376	0.409	0.435	0.398
NCI-H1975	1.18	1.26	1.08	1.31	0.994	0.877	1.12	1.16	0.999	0.853	0.66	0.619	0.566	0.551	0.569	0.361	0.334	0.329	0.345	0.365
NCI-H1993	1.02	0.96	0.925	1.09	0.901	0.739	0.678	0.707	0.717	0.7	0.536	0.661	0.813	0.629	0.775	0.52	0.561	0.493	0.533	0.535
NCI-H2009	1.15	1.26	1.22	1.06	0.899	1.16	1.25	1.22	1.1	0.97	0.208	0.214	0.227	0.179	0.0903	0.277	0.328	0.246	0.26	0.245
